Patent publication US5374634A, “Pyridine derivatives” (Kyowa Hakko Kogyo Co., Ltd., priority 1992, dated 1994)

How the values were obtained:
[1] = tested on: dd-strain male mice; assay: Acute toxicity test (oral, minimum lethal dose); type: in vivo; settings: mortality observed for 7 days
Experimental: A test compound was orally administered to three dd-strain male mice weighing 20±1 g. The minimum lethal dose (MLD) was determined by observing the mortality for 7 days after the administration.

[2] = tested on: PTH-induced calcium release (i.e. bone resorption) from bones (calvaria); assay: Bone resorption-inhibiting effect: inhibition of PTH-induced calcium release from cultured calvaria; type: cell-based, dd mice (5- to 6-day-old); settings: mouse half calvaria culture; PTH 1×10^-8 M; calcium in medium at 96 hours; test compound 3×10^-6, 1×10^-5, 3×10^-5 M
Experimental: The bone resorption-inhibiting effect of the compounds of the present invention is illustrated by the following experiment.
Calvaria were aseptically removed from 5- to 6-day-old dd mice, washed with Dulbecco's modified phosphate-buffered saline not containing calcium and magnesium (product of Gibco Oriental Co.), and cut along the sagittal suture into left and right halves. Each half calvarium was cultured in 1.5 ml medium consisting of Dulbecco's modified Eagle medium (high glucose) (product of Gibco Oriental Co.) supplemented with 15% heat-inactivated (at 56° C. for 20 minutes) horse serum, 2.5% heat-inactivated fetal bovine serum, plus 1% antibiotic-antimycotic liquid. The test compound was dissolved in dimethylsulfoxide, and a 10 μl portion of the solution was added to the culture to the final concentrations of 3×10^-6 M, 1×10^-5 M and 3×10^-5 M. PTH (parathyroid hormone) was dissolved in 0.15M sodium chloride (pH 3), and a 3 μl-portion of the resulting solution was added to the culture to the final concentration of 1×10^-8 M. Cultures were incubated at 37° C. in a water-saturated atmosphere consisting of 5% CO2 and 95% air. Typically, cultures were maintained for 96 hours and the media were changed at 48 hours. The test compound and PTH which had been processed in the same manner as described above were added thereto. In order to investigate the action of the test compound on PTH-induced calcium release (i.e. bone resorption) from bones, there were prepared 3 groups: control group, PTH treated group (1×10^-8 M) and test compound- and PTH-treated group (3×10^-6 M, 1×10^-5 M, 3×10^-5 M). Bone resorption was assessed by measuring the accumulation of calcium in the culture media collected at 96 hours of culturing. The total calcium concentrations were determined using Calcium C-Test Wako (product of Wako). The inhibition rate was calculated therefrom according to the equation given below and 50% inhibitory concentration (IC50) was determined. [formula] CO : Total calcium concentration in the culture free from both PTH and test compound
Cp : Total calcium concentration in the culture treated with PTH only
CD : Total calcium concentration in the culture treated with both PTH and test compound.

Row | Compound | IC50 [2] | MLD (minimum lethal dose) [1]
1 | COc1ccc(C(c2ccc(OC)cc2)c2cnccc2C(=O)N2CCN(c3ccccc3Cl)CC2)cc1 [Compound 6, 1-(2-Chlorophenyl)-4-{[3-bis(4-methoxyphenyl)methyl]-isonicotinyl}piperazine] | – | > 300 mg/kg
2 | O=C(NC12CC3CC(CC1C3)C2)c1ccncc1C(c1ccc(O)cc1)c1ccc(O)cc1 [Compound 9, N-(Tricyclo[3.3.1.0^3,7]non-3-yl)-3-[bis(4-hydroxyphenyl)methyl]-4-pyridinecarboxamide] | 18.6 µM | –
3 | O=C(c1ccncc1C(c1ccc(O)cc1)c1ccc(O)cc1)N1CCCCC1 [Compound 10] | 19.2 µM | –
4 | O=C(NC12CC3CC(CC(C3)C1)C2)c1ccncc1C(c1ccc(O)cc1)c1ccc(O)cc1 [Compound 11, N-(Tricyclo[3.3.1.1^3,7]dec-1-yl)-3-[bis(4-hydroxyphenyl)methyl]-4-pyridinecarboxamide] | 20.3 µM | –
5 | O=C(c1ccncc1C(c1ccc(O)cc1)c1ccc(O)cc1)N1CCN(c2ccccc2Cl)CC1 [Compound 13, 1-(2-Chlorophenyl)-4-{[3--bis(4,hydroxyphenyl)methyl]isonicotinyl}piperazine] | 6 µM | > 1000 mg/kg
6 | O=C(c1ccncc1C(c1ccc(O)cc1)c1ccc(O)cc1)N1CCN(c2cccc(Cl)c2)CC1 [Compound 18, 1-(3-Chlorophenyl)-4-{[3-bis(4-hydroxyphenyl)methyl]isonicotinyl}piperazine] | 14 µM | > 300 mg/kg

Continued, in another order:

Row | IC50 [2] | Compound | MLD (minimum lethal dose) [1]
7 | 11.6 µM | O=C(NC1CCCCCCC1)c1ccncc1C(c1ccc(O)cc1)c1ccc(O)cc1 [Compound 12, N-Cyclooctyl-3-[bis(4-hydroxyphenyl)methyl]-4-pyridinecarboxamide] | –
8 | 75.6 µM | O=C(Nc1ccc(O)cc1)c1ccncc1C(c1ccc(O)cc1)c1ccc(O)cc1 [Compound 15, N-(4-Hydroxyphenyl)-3-[bis(4-hydroxyphenyl)methyl]-4-pyridinecarboxamide] | –
9 | 7.1 µM | O=C(c1ccncc1C(c1ccc(O)cc1)c1ccc(O)cc1)N1CCN(c2cccc(C(F)(F)F)c2)CC1 [Compound 16, 1-(3-Trifluoromethylphenyl)-4-{[3-bis(4-hydroxyphenyl)methyl]isonicotinyl}piperazine] | –
10 | 24.9 µM | O=C(c1ccncc1C(c1ccc(O)cc1)c1ccc(O)cc1)N1CCN(c2ccc(Cl)cc2)CC1 [Compound 17, 1-(4-Chlorophenyl)-4-{[3-bis(4-hydroxyphenyl)methyl]isonicotinyl}piperazine] | –
11 | 8.9 µM | O=C(c1ccncc1C(c1ccc(O)cc1)c1ccc(O)cc1)N1CCN(c2ccccc2O)CC1 [Compound 19, 1-(2-Hydroxyphenyl)-4-{[3-bis(4-hydroxyphenyl)methyl]isonicotinyl}piperazine] | –
12 | 75.6 µM | O=C(c1ccncc1C(c1ccc(O)cc1)c1ccc(O)cc1)N1CCN(c2ccccc2)CC1 [Compound 20, 1-Phenyl-4-{[3-bis(4-hydroxyphenyl)methyl]isonicotinyl}piperazine] | –
13 | 8.5 µM | Cc1cccc(N2CCN(C(=O)c3ccncc3C(c3ccc(O)cc3)c3ccc(O)cc3)CC2)c1 [Compound 21, 1-(3-Methylphenyl)-4-{[3-bis(4-hydroxyphenyl)methyl]isonicotinyl}piperazine] | –
14 | 19.6 µM | O=C(c1ccncc1C(c1ccc(O)cc1)c1ccc(O)cc1)N1CCN(c2ncccn2)CC1 [Compound 22, 1-(2-Pyrimidyl)-4-{[3-bis(4-hydroxyphenyl)methyl]isonicotinyl}piperazine] | –
